Results on two sequences are retold here after PMC13193388, “Dimerization‐dependent NOTCH receptor transactivation unveils a class of highly selective NOTCH signalling inhibitors” (The Febs Journal, 2025).

Entries after “also recorded” stand apart in the source; their conditions may differ.

In experiment [1] the test system is N2 receptor. Briefly: N2 receptor dimerization (immobilized HIS-N2 with HA-N2, western blot). The class given is biochemical, human. Particulars: HIS-N2 on nickel beads with HA-N2, western blot; n = 3. The method, then: (§1) Human embryonic kidney (HEK) 293 T cells (RRID:CVCL_0063) were cultured in Dulbecco's Modified Eagle Medium (DMEM) (Gibco, Grand Island, NY, USA) supplemented with 10% fetal bovine serum (FBS) (Gibco). This cell line was obtained from the American Type Culture Collection (ATCC, Manassas, VA, USA). T‐ALL cell lines (kindly provided by Professor Jan Cools – VIB, Leuven): MOLT4 (RRID:CVCL_0013), ALL SIL (RRID:CVCL_1805), DND‐41 (RRID:CVCL_2022), HPB‐ALL (RRID:CVCL_1820), SUP‐T1 (RRID:CVCL_1714) and JURKAT (RRID:CVCL_0065), were cultured in Roswell Park Memorial Institute (RPMI) 1640 medium (Gibco) supplemented with 10% FBS (Gibco). […] RNA isolation, first‐strand cDNA synthesis and analysis of expression of transcripts by quantitative (q) PCR were performed as described previously. […] Expression of these proteins was determined using antibodies directed against either the coding region of the protein or the epitope tag. […]
(§2) Domains for recombinant protein production were cloned into the pET 28a vector in‐frame to an N‐terminal HIS6 epitope. […] Protein yields were determined by Bradford assay (Bio‐Rad, Hercules, CA, USA), and relative protein integrity and purity were determined by SDS/PAGE and Colloidal Blue staining (Invitrogen, Carlsbad, CA, USA). […] Proteins were separated by SDS/PAGE and associated proteins were detected by western blotting.

The subject of another experiment is NOTCH receptors. Briefly: Endogenous HEY expression in 293 T cells expressing NOTCH receptors (real-time qPCR). Format: cell-based, human. Particulars: 3 h, DAPT 20 μM, n = 3 (Fig. 4F). The method, then:
(§3) Human embryonic kidney (HEK) 293 T cells (RRID:CVCL_0063) were cultured in Dulbecco's Modified Eagle Medium (DMEM) (Gibco, Grand Island, NY, USA) supplemented with 10% fetal bovine serum (FBS) (Gibco). This cell line was obtained from the American Type Culture Collection (ATCC, Manassas, VA, USA). T‐ALL cell lines (kindly provided by Professor Jan Cools – VIB, Leuven): MOLT4 (RRID:CVCL_0013), ALL SIL (RRID:CVCL_1805), DND‐41 (RRID:CVCL_2022), HPB‐ALL (RRID:CVCL_1820), SUP‐T1 (RRID:CVCL_1714) and JURKAT (RRID:CVCL_0065), were cultured in Roswell Park Memorial Institute (RPMI) 1640 medium (Gibco) supplemented with 10% FBS (Gibco). Cells were maintained in a 5% CO2, 37 °C humidified incubator, tested monthly for mycoplasma contamination using a MycoAlert kit (Lonza, Walkersville, MD, USA), and checked for authenticity, in the last 3 years, by an in‐house service using short tandem repeat (STR) profiling. Transfections, lentivirus production and cell infections, western blotting and co‐immunoprecipitations have been described previously. […] RNA isolation, first‐strand cDNA synthesis and analysis of expression of transcripts by quantitative (q) PCR were performed as described previously. […] Expression of these proteins was determined using antibodies directed against either the coding region of the protein or the epitope tag. […]
In general terms: Quantitative PCR measures a nucleic acid by following its amplification.

In a further experiment the target is T1, NOTCH3-ECD (Homo sapiens, UniProt Q9UM47).
T1 construct: we purified the complete (recombinant) N3 ECD from human tissue culture cells; made in house; host or cells: PEC.3.30 (modified Per.E2A human cells), purified from culture supernatant
Briefly: SPR peptide binding to immobilized recombinant NOTCH3-ECD. The method, then: (§4) The NOTCH3‐ECD protein was produced using PEC.3.30, which is modified Per.E2A cells. DMEM cell supernatant containing the NOTCH3‐ECD protein was collected for purification. The supernatant was loaded onto a HisTrap high‐performance (HP) column (Cytiva, Uppsala, Sweden) and eluted with a gradient buffer that included 500 mM imidazole, 25 mM HEPES at pH 7.5 and 500 mM NaCl. The pooled fractions were concentrated using a 50 000 molecular weight cut‐off (MWCO) centrifugal filter (Millipore, Merck KGaA, Darmstadt, Germany), resulting in a buffer of 10 mM imidazole, 25 mM HEPES at pH 7.5 and 100 mM NaCl. The concentrated protein solution was subsequently loaded onto a Superdex 200 16/600 gel filtration column (Cytiva, Uppsala, Sweden), which was equilibrated with 25 mM HEPES at pH 7.5 and 100 mM NaCl. Similar yields of purified protein were obtained across all samples. The purified proteins were snap‐frozen in liquid nitrogen immediately after purification and stored at −80 °C.
Peptide binding to the NOTCH3‐ECD protein using SPR was performed using a Biacore T200. The NOTCH3‐ECD protein was immobilized onto a Biacore NTA Series S Sensor Chip (Cytiva), at a concentration of 0.1 μg·μL^−1 using Nickel‐NTA capture‐coupling, resulting in approximately 3500 RU of immobilized protein. Peptides were introduced using the ‘Eject rack’ function, followed by analysis. […]

Experiment [2] relates to N3 receptor. Briefly: N3 downstream NOTCH target gene expression (real-time qPCR). Format: cell-based, human. As to conditions: 293 T cells with HA-N3, recombinant DLL1, 3 h, n = 3. The procedure: as §3
Another experiment has as its system N3 ECD homodimer. Put plainly: Nondenaturing gel: disruption of purified N3 ECD homodimer. Particulars: nondenaturing acrylamide gel, purified HIS-tagged N3 ECD; n = 3. The class given is biochemical, human. The method, then: as §4
Experiment [3] concerns N3 receptor. Put plainly: N3 receptor dimerization (immobilized HIS-N3 with HA-N3, western blot). Particulars: peptides 10 μM unless otherwise stated, n = 3. The class given is biochemical, human. The method, then:
as §1, §2
For orientation: Immunoblotting shows a protein as a band on a membrane.

The subject of experiment [4] is N3 receptor. Put plainly: N3 transactivation luciferase reporter assay. Format: cell-based, human. The procedure:
(§5) Reporter assays were performed as previously described. Briefly, stable cell lines expressing epitope‐tagged ligands and receptors were established via infection of cells with lentiviruses harbouring the appropriate ligand/receptor cDNA followed by selection with the encoded antibiotic (puromycin or neomycin). For transactivation assays, cells co‐expressing receptor and reporter were cocultured with cells stably expressing ligand alone (to enable transactivation). […] For each experiment, cells were seeded in triplicate in 12‐well plates. The NOTCH luciferase reporter harboured 10× Recombination Signal Binding Protein for Immunoglobulin kappa J (RBPJ) consensus DNA‐binding sites, and was cotransfected with thymidine kinase promoter‐driven Renilla luciferase control plasmid. Additionally, transfection efficiencies (routinely > 90%) were determined through visualization of cotransfected plasmid encoding the Tomato fluorescence reporter. Cells were lysed 36 h postplating, and luciferase activity was measured using a luciferase assay substrate (Promega). Luciferase activity was normalized by measuring Renilla luciferase activity (Promega). Where indicated, assays were performed in the presence or absence of 10 μM DAPT (Sigma‐Aldrich, St. Louis, MO, USA). Receptor and ligand protein levels were determined by western blotting. Experiments were performed three times. […]
(In general: Reporter assays use an easily measured gene product as a stand-in for the process of interest.)

For experiment [5], the system named is N2 receptor. Briefly: Cell surface ligand-N2 receptor binding assay. Format: cell-based, human. As to conditions: Fig. 4D; n = 3. The method, then: (§6) Confluent 10‐cm dishes of 293 T cells stably expressing HA epitope‐tagged NOTCH receptors were washed with ice‐cold phosphate buffered saline (PBS)/bovine serum albumen (BSA) (1 mg·mL^−1). Cells were stimulated with 50 μL of ligand (0.5 mg·mL^−1) in the presence of 1.5 mL of PBS/BSA (1 mg·mL^−1) for 1 h, with gentle shaking, at 4 °C. Cells were washed once with PBS. Cells were incubated with crosslinkers in the presence of 2 mL of ice‐cold PBS for 15 min, with gentle shaking at 4 °C: 0.27 μM disuccinimidyl suberate (DSS) (Pierce, Rockford, IL, USA) and 0.07 μM bis‐sulfosuccinimidyl suberate (BS3) (Pierce). Cells were washed once with ice‐cold detachment buffer (10 mM Tris–HCl pH 7.4, 1 mM EDTA pH 7.4, 10% glycerol), scraped off the plates in 1 mL of detachment buffer and transferred to Eppendorf tubes. Cell pellets were lysed in 1 mL of solubilization buffer (125 mM NaCl, 10 mM Tris–HCl pH 7.4, 1 mM EDTA pH 7.4, 1% Triton X‐100) on ice for 30 min and centrifuged at 13000 r.p.m. for 10 min. Supernatants were incubated with HA antibody (Covance, Princeton, NJ, USA) overnight at 4 °C. 50 μL of washed (4×) protein A/G beads (50% solution) was added, and samples were incubated for 45 min at 4 °C. The beads were washed four times with solubilization buffer. 50 μL of sample buffer was added and samples were boiled for 5–10 min prior to gel electrophoresis. […]

For experiment [6], the system named is N2 receptor. Put plainly: N2 transactivation luciferase reporter assay. The class given is cell-based, human. As to conditions: Fig. 4A,E, n = 3. The method, then: as §5
Experiment [7] concerns N3 receptor. Put plainly: Ligand-dependent N3 receptor cleavage (western blot). Particulars: 293 T cells, recombinant DLL1, peptides 10 μM unless otherwise stated. Format: cell-based, human. The procedure: as §3
The subject of experiment [8] is N2 receptor. Put plainly: Ligand-dependent N2 receptor cleavage (western blot). Format: cell-based, human. As to conditions: 293 T cells with HA-N2, recombinant DLL1; n = 3. The method, then:
as §3

Experiment [9] deals with N3 receptor. Briefly: Cell surface ligand-N3 receptor binding assay. As to conditions: 293 T cells stably expressing HA-tagged N3, crosslinked, western blot; n = 3. Format: cell-based, human. The procedure:
as §6

T1 sequence (Q9UM47 40-1643 limits assumed): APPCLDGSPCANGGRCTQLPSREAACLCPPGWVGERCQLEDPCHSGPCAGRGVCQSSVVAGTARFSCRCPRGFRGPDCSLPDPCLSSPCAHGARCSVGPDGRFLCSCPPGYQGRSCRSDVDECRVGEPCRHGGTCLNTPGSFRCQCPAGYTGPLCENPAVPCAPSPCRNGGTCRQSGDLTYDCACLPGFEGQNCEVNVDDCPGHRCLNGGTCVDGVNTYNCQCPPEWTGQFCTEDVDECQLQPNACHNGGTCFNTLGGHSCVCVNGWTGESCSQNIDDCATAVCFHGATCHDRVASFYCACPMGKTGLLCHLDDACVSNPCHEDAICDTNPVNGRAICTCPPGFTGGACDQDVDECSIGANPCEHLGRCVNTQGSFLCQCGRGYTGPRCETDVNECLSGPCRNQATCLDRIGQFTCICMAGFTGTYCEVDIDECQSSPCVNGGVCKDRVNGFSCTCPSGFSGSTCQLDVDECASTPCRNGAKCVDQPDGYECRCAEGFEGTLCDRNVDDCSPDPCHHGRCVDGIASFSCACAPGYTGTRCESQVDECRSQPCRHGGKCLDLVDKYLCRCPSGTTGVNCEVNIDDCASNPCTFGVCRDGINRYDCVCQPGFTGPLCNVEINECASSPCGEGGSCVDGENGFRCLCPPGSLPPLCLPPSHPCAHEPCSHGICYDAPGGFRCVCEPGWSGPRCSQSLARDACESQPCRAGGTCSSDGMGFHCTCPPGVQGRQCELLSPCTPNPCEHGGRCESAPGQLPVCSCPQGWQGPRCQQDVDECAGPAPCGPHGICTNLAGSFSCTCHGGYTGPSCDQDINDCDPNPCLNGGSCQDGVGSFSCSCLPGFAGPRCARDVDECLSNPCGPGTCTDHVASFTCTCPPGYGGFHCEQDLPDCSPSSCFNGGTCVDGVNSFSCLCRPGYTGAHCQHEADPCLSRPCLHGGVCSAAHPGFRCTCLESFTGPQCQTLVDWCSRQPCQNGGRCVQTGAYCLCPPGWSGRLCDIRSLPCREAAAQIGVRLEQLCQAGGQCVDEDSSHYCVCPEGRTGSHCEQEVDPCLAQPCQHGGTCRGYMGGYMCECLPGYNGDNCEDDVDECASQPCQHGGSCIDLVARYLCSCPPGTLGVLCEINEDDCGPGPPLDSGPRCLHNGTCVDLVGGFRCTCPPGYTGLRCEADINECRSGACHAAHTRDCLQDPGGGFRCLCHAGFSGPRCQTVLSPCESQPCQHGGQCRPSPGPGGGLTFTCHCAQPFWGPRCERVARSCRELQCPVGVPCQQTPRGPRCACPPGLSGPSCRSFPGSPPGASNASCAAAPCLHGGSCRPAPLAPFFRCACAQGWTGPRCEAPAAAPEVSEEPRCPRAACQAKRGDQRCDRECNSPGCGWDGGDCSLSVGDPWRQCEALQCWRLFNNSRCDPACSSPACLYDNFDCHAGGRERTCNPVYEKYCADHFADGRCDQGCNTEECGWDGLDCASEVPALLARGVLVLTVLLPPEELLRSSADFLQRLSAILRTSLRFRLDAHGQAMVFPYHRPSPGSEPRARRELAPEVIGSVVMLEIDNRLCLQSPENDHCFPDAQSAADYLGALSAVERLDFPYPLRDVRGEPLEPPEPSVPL

As for “EKYCADHFADGR [N34, N3 peptide (…) centred on the helix encompassing the core dimerization motif]”, the “effect on N2 receptor dimerization” value in the experiment on N2 receptor [1] is reported as “little detectable effect”. Besides, the “suppression of NOTCH-driven gene expression compared to DAPT” value in the experiment on NOTCH receptors is “as efficiently as the generic gamma secretase inhibitor (GSI), DAPT”. Further, on NOTCH3-ECD (pure recombinant N3 ECD purified from human cells), the “K D (range in words)” value is on record as “low nM range”. Moreover, the “inhibition of downstream NOTCH target genes (N3)” value in the experiment with N3 receptor [2] was “robustly inhibit”. Further, the “disruption of N3 ECD homodimer” value with N3 ECD homodimer was “disrupted”. In addition, the “inhibition of N3 receptor dimerization” value with N3 receptor [3] is reported as “robustly inhibit”. Further, in the experiment on N3 receptor [4] (Fig. 4E), the “selectivity for N3 over N2 and N1” value was “exquisite selectivity for N3 (and not N2 or N1”. Further, the “inhibition of N3 transactivation (NOTCH reporter)” value in the experiment on N3 receptor [4] (coculture with ligand cells, lysed 36 h postplating, peptides 10 μM unless otherwise stated, n = 3) is “robustly inhibit; also recorded: inhibited N3 receptor activity”. In the experiment with N2 receptor [5], the “effect on stable N2 receptor-ligand binding at the cell surface” value is given as “little detectable effect”. Moreover, the “effect on N2 receptor transactivation / downstream gene activation” value in the experiment with N2 receptor [6] is “little detectable effect”. In addition, the “inhibition of ligand-dependent N3 receptor cleavage” value in the experiment with N3 receptor [7] is reported as “robustly inhibit”. For the same sequence, the “effect on N2 receptor cleavage” value in the experiment on N2 receptor [8] was “little detectable effect”. In the experiment on N3 receptor [9], the “block of stable ligand-receptor binding at the cell surface (N3)” value is recorded as “efficiently blocked”.
Regarding “EKYGGGHFADGR [control peptide, control peptide (…), core of the dimerization motif mutated (to glycine), reference compound]”, the “binding to N3 ECD” value on NOTCH3-ECD (control peptide with motif core mutated to glycine) is on record as “failed to bind efficiently to the N3 ECD”.
